The values that follow come from US20100184644A1, “MUCOSAL REPAIR BY TFF DIMER PEPTIDES” (priority 2001, published 2010).

The test system of data set [1] is Mitomycin C induced colitis. Briefly: Mitomycin C induced colitis model, luminal TFF3. In kind it is in vivo, rat. The source says:
(§1) Methods: 32 female wistar rats weighing 200 g were used in the study. The effect of luminal TFF3 was investigated in two rat models of colitis—the Mitomycin C induced colitis model (Keshavarzian A. et al. J. Lab Clin. Med. 1992; 120:778-91) and the dextran induced colitis model (Mottet N K. Gastroenterology 1972; 62:1269-71). TFF3 was administrated directly into the proximal part of the colon by means of a soft polyethylene tube which in anaesthezised rats at a laparotomy, was inserted into the colonic lumen, secured by 6-0 silk sutures and lead subcutaneously to the neck region of the rat.
Mitomycin C colitis: In 16 rats colitis was induced by means of Mitomycin C, 3.75 mg/kg. Eight of the rats were given TFF3, 5 mg/kg in 0.5 ml H2O, two times each day from day 4-7 into the colonic tube. The 8 controls received NaCl. The rats were sacrificed by means of an overdose of barbiturate 8 days after mitomycin administration. The colon was fixed by intraluminal injection of 10% formalin, and after 10 minutes opened and suspended on a polyethylene plate. […] The colonic specimens were investigated by means of a Wild Photomacroscope—the extent of disease and the number of ulcerations were quantitated. […] The severety of colitis was scored by means of a histologic colitis score (FIG. 5, Williams K L. et al. Gastroenterology 2001; 120:925-37).

The test system of another data set is dextran induced colitis. Description: Dextran induced colitis model, luminal TFF3. In kind it is in vivo, rat.
Description: as §1
Dextran colitis: In 16 rats colitis was induced by means of dextran sulphate sodium 5% administered in the drinking water. Eight of the rats were given TFF3, 5 mg/kg in 0.5 ml H2O into the colonic tube, two times each day from the day before the initiation of dextran supplementation till day 9, where the rats were sacrificed. The 8 controls recieved NaCl. The rats were sacrificed by means of an overdose of barbiturate. The colon was fixed by intraluminal injection of 10% formalin, and after 10 minutes opened and suspended on a polyethylene plate. After further 24 hours fixation the specimens were flushed with water and surface stained with 0.3% Alcian Green 3BX. The colonic specimens were investigated by means of a Wild Photomacroscope—the extent of disease and the number of ulcerations were quantitated. For histologic analysis specimens were taken out (in a blinded way) from the proximal, middle and distal colon and embedded in paraffin. Histologic sections of 5 μm were stained with PAS-hematoxylin-aurentia. The severety of colitis was scored by means of a histologic colitis score (Williams K L. et al. Gastroenterology 2001; 120:925-37).

Data set [2] relates to mucin I (crude mucin, type II from porcine stomach). Briefly: Oscillatory rheometer measurement of mucin solution and mucin/TFF3 dimer gel-like material. The note with it: for Elastic modules G′ / Viscous modulus G″: 2 ml 10% (w/v) mucin I + 10 mg TFF3 dimer in 0.4 ml water, 30 min, 20° C. The procedure:
FIG. 3. Oscillatory measurement of mucin solution (a) and mucin/TFF3 dimer peptide gel-like material (b). 2 ml of 10% (w/v) mucin I dissolved in 0.05% (w/v) sodiumazide was added 0.4 ml of water (a) or 0.4 ml of water containing 10 mg TFF3 dimer peptide (b). After 30 min at 20° C. a sinosoidally varying stress was applied and the strain response was detected at different frequencies. The complex viscosity (η*) ? the elastic modulus (G′) ? and the viscous modulus (G″) ? was calculated and plotted as a function of different frequencies.
(§2) Rheological measurements. Rheological properties were measured by the use of a rotational Reologica Rheometer (Reologica Instriments AB, Lund, Sweden). The instrument is equipped with a stainless steel C40 4 cone-plate (40 mm diameter plate with an angle of 4 degree) requiring a sample volume of at least 1.2 ml. The instrument was operated using instrument standard software (Version 3.6) allowing several different types of measurements. In the present study we have used the measuring programs: Constant Rate (viscosity and stress as a function of shear rate), Oscillation (complex viscosity, elastic modulus and viscous modulus at different frequencies) and Oscillation Stress Sweep (to identify the stress range inside which the measurement results are linear i.e. independent of the applied stress).
In order to characterise the mucin/TFF dimer peptide gel-like structure, the technique of oscillatory measurement in which the gel-like material are subjected to a sinusoidaily varying stress is applied and the strain response is measured. Before this measurement is carried out an oscillation stress sweep programme is used to define the so-called linear viscoelastic region. Inside this region no change of the mucin/TFF dimer peptide structure occurs and the relation between the applied stress and the measured quantities is linear.
This type of experiments allow the estimation of several rheological parameters as a function of frequency: complex viscosity η*, elastic modulus G′ and viscous modulus G″ (for detailed rheological theory see Barnes, H. A. (1989) An introduction to rheology. Elsevier and Ferguson, J. and Kemblowski, Z. (1991) Applied fluid rheology. Elsevier)

The test system is the same in data set [3]. Description: Viscosity versus shear rate (constant rate rheometer programme). The note with it: 2 ml 10% (w/v) mucin I + 7.05 mg TFF3 dimer; 30 min, 20° C.; FIG. 4. As for the experimental part: FIG. 4. Viscosity versus shear rate of TFF3 dimer peptides. 2 ml 10% (w/v) mucin I dissolved in 0.05% sodiumazide was added 7.05 mg TFF3 dimer dissolved in water. After 30 min at 20° C. the viscosity was measured as function of shear rate using the software programme: “constant rate”. ? mucin I alone; Δ—Δ: mucin I+TFF3 dimer.
as §2

No end group written: not given here.

With “TFF3: trefoil factor 3 given intraluminally to rats; Example 2 does not state monomer or dimer form (EEYVGLSANQCAVPAKDRVDCGYPHVTPKECNNRGCCFDSRIPGVPWCFKPLQEAECTF; not fully specified (bridges); cysteine pairing not given here; UniProt Q07654 22-80, looked up)”, the “Overall colitis score (histologic)” value worked out at 3.4 in data set [1] (rat, TFF3 5 mg/kg intraluminal twice daily day 4-7, control (NaCl) 10.8, p<0.01) and 1.1 in the data set with dextran induced colitis (rat, TFF3 5 mg/kg intraluminal twice daily till day 9, control (NaCl) 3.18, p<0.05). The “Severity of mitomycin induced colitis” value in data set [1] (rats, intraluminal treatment) is recorded as “reduces the severity”. Moreover, in the data set with dextran induced colitis (rat, TFF3 5 mg/kg intraluminal twice daily, control 1.8, p<0.05), the “Histologic colitis score in the midsegment of the colon” value stood at 0.4. Further, in the data set on dextran induced colitis (rats, intraluminal treatment), the “Severity of dextran induced colitis” value was “reduces the severity”.
Regarding “TFF3 dimer: dimer form of recombinant human TFF3; two TFF3 monomers linked by a disulfide bond between Cys57 of each monomer (EEYVGLSANQCAVPAKDRVDCGYPHVTPKECNNRGCCFDSRIPGVPWCFKPLQEAECTF; not fully specified (bridges); also: homodimer via disulfide between Cys57 of each monomer)”, the “Elastic modules G′” value is recorded as 19 Pa in data set [2] (0.01 Hz), 52 Pa in data set [2] (0.1 Hz) and 86 Pa in data set [2] (1 Hz). In addition, the “Viscous modulus G″” value in data set [2] (0.01 Hz) was 18 Pa; in data set [2] (0.1 Hz), 37 Pa; in data set [2] (1 Hz), 54 Pa. The “Elastic modulus and viscous modulus compared to the mucin solution” value in data set [2] (mucin/TFF3 dimer gel-like structure vs mucin solution) is listed as “dramatically increased”. In addition, in data set [3], the “Effect on the viscosity of the mucin I solution” value is reported as “significant effect”.
